Test [1] relates to Yarrowia lipolytica ATCC strain 46482. The experiment in a line: Intracellular lipid quantification and GC/MS fatty acid profile, OP5 / PCOP5 medium. Format: cell-based. The following applies: added to OP5 medium at 0.75, 1.5 and 3 g L^−1. The method, then:
Fermentation Optimization: For fermentation optimization experiments, pH, inoculum density, osmolarity, or carbon-nitrogen ratio were altered. For pH experiments, OP5 medium pH was adjusted to 4.0, 5.0, or 6.0 using 2.0 M H2SO4 or 4.0 M NaOH. A Corning 320 pH meter (Corning, USA) was used to measure pH. For starting inoculum density experiments, OP5 medium was inoculated at an inoculum density of either 1.0, 3.0, or 6.0. Aliquots of 1 ml were retrieved from Y. lipolytica overnight culture and inoculum density was measured via absorbance at 600 nm. Based on absorbance readings, a volume of cells corresponding to the desired inoculum density was retrieved from the overnight culture and centrifuged at 4,000 rpm. Pelleted cells were washed twice with 50 mM PBS solution and used to inoculate OP5 medium. […] After the selected parameters were altered, shake flask fermentations were carried out for 120 hours, after which cells were processed and biomass and lipid product formation were analyzed as described below. […]
Component media experiments were carried out in 500 ml Erlenmeyer flasks containing 50 ml medium, and Y. lipolytica was inoculated at an inoculum density of 1.0. […] The supernatant was decanted and cells washed twice with 50 mM PBS before being lyophilized, weighed as described above, and lipids extracted and quantified as described in the following section. […]

Test [2] shares this test system. The experiment in a line: Y. lipolytica growth (biomass) in OP5 / PCOP5 medium, fermentation optimization. Type of test: cell-based. The following applies: added to OP5 medium at 0.75, 1.5 and 3 g L^−1. The method, then: Polypropylene Growth Medium Preparation: OP5 medium is prepared as follows. 125-ml flat-bottomed borosilicate flasks were used to pyrolyze either virgin PP pellets or sheared postconsumer PP in 3 g batches at 540° C. for 195 minutes. The pyrolysis oil (at 15 g L^−1) was combined with: 5.4 g L^−1 Tween-80@, 5 g L^−1 yeast nitrogen base, 2.5 g L^−1 KH2PO4, 2.5 g L^−1 yeast extract, and 1.25 g L^−1 MgSO4 7H2O. The mixture was emulsified with a hand-held food-grade homogenizer. To compensate for the lack of oleic acid as an emulsifier, the homogenization time of OP5 medium was increased from 90 seconds (mixing time for OP4 medium) to 3 minutes. The resulting homogenized medium was autoclaved for 30 min at 121° C. and 15 psi.
Cultures and Fermentation Conditions: Yarrowia lipolytica ATCC strain 46482 was the strain used in this work. Overnight cultures were prepared from 1 ml 60% glycerol stocks of Y. lipolytica stored at −80° C. […] 1 ml aliquots of overnight cultures were withdrawn and used to measure yeast growth via absorbance. […]
Growth Measurements: Y. lipolytica growth measurements were taken spectrophotometrically and gravimetric measurements. Y. lipolytica culture aliquots of 1 ml were withdrawn, and growth was measured via optical density at 600 nm using an Eppendorf 6131 Biophotometer (Eppendorf, USA). […]

The text below walks through data of US20230250253A1, “PLASTIC POLYMER BIOCONVERSION PROCESS” (GEORGIA STATE UNIVERSITY RESEARCH FOUNDATION, INC., priority 2020, published 2023).

Take `[Cl-].[Na+]` [NaCl, sodium chloride]: the “Effect on fatty acid production or intracellular fatty acid content” value in test [1] is on record as “no significant impact”. Also, the “Effect on Y. lipolytica cell growth” value in test [2] is recorded as “inhibited”.
